Our source for the IC50 values is the Kinase Knowledgebase extract (Sharma et al. 2016).

Some results are limits rather than exact numbers.

The test deals with PIK3CG (human) (UniProt P48736). The test is described as follows: Assessment of PIK3CG Kinase Activity.
Sequence of PIK3CG (human) (P48736 whole entry, looked up): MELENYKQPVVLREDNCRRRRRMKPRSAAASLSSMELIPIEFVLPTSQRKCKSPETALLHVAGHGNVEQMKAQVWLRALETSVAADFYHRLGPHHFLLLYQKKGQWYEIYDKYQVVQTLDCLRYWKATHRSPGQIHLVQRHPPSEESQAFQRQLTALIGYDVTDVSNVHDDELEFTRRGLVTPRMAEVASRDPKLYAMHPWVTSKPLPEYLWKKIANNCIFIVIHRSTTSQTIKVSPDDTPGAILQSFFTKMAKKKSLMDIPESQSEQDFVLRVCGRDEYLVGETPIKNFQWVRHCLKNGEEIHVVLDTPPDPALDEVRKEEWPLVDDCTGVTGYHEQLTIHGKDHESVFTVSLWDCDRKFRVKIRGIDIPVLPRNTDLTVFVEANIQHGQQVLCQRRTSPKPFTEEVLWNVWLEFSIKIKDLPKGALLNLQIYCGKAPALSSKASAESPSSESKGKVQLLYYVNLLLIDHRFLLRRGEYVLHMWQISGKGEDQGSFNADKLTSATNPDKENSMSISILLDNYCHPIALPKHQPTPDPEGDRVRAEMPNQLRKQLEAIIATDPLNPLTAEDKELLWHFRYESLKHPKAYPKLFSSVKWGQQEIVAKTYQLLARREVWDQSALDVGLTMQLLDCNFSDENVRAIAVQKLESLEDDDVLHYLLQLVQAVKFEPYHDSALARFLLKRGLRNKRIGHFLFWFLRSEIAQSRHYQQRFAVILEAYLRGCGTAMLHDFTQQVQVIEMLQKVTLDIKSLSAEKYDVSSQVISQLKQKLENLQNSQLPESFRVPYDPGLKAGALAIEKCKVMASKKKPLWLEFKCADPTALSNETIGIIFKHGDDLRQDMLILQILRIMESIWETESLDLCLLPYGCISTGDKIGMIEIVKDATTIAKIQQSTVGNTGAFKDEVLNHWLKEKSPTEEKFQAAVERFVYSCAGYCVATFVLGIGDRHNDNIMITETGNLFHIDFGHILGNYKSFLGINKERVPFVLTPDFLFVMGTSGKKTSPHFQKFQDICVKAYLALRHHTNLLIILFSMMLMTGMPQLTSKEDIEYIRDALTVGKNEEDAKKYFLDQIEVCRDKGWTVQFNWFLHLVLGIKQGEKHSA

Consider `O=C1CCC(CNC(=O)Nc2nc3c(s2)-c2c(c(-c4cncnc4)nn2-c2ccccc2Cl)CC3)N1` (stereo unspecified), for which the IC50 (in general, the concentration needed to halve the response being measured) is < 800 nM.

With `O=C(NCc1ccc2cc[nH]c2c1)Nc1nc2c(s1)-c1c(c(-c3cncnc3)nn1-c1ccccc1Cl)CC2`, the IC50 is < 800 nM.

Take `CC(=O)Nc1cccc(CNC(=O)Nc2nc3c(s2)-c2c(c(-c4cncnc4)nn2-c2ccccc2Cl)CC3)c1`: the IC50 is < 800 nM.

Consider `NC(=O)Nc1cccc(CNC(=O)Nc2nc3c(s2)-c2c(c(-c4cccnc4)nn2-c2ccccc2Cl)CC3)c1`, for which the IC50 is < 800 nM.

Consider `O=C(Nc1nc2c(s1)-c1c(c(-c3ccccc3)nn1-c1ccccc1Cl)CC2)NC1CCC(NS(=O)(=O)c2ccccc2)CC1` (stereo unspecified), for which the IC50 was < 800 nM.

As for `CCc1csc(CCNC(=O)Nc2nc3c(s2)-c2c(c(-c4ccccc4)nn2-c2cccc(Cl)c2)CC3)n1`, the IC50 is < 800 nM.

For `CC(C)(C)OC(=O)NCCNC(=O)Nc1nc2c(s1)-c1c(c(-c3ccccc3)nn1-c1ccccc1Cl)CC2`, the IC50 was < 800 nM.

In the case of `O=C(NCCc1nc(C2CC2)no1)Nc1nc2c(s1)-c1c(c(Nc3ccccn3)nn1-c1ccccc1)CC2`, the IC50 was < 800 nM.

Take `O=C(NCCN1CCNC1=O)Nc1nc2c(s1)-c1c(c(-c3cccnc3)nn1-c1ccccc1Cl)CC2`: the concentration for half-maximal inhibition (IC50) is < 800 nM.

For the molecule `CC(=O)Nc1cccc(CNC(=O)Nc2nc3c(s2)-c2c(c(C4CC4)nn2-c2ccccc2Cl)CC3)c1`, the IC50 is < 800 nM.

Regarding `O=C(Nc1nc2c(s1)-c1c(c(-c3cccnc3)nn1-c1ccccc1Cl)CC2)N1CCC(CN2CCc3ccccc3C2=O)C1` (stereo unspecified), the IC50 was < 800 nM.

As to `C[C@@H](NC(=O)Nc1nc2c(s1)-c1c(c(-c3ccccc3)nn1-c1ccccc1Cl)CC2)C(=O)N(C)C`, the IC50 is < 800 nM.

`CCc1nnc(CCNC(=O)Nc2nc3c(s2)-c2c(c(C4CC4)nn2-c2ccccc2Cl)CC3)o1`: the 50% inhibitory concentration (IC50) is < 800 nM.

As to `CC(=O)NC1CCN(C(=O)Nc2nc3c(s2)-c2c(c(-c4cccnc4)nn2-c2ccccc2Cl)CC3)C1` (stereo unspecified), the IC50 was < 800 nM.

Turning to `C[C@@H](NC(=O)Nc1nc2c(s1)-c1c(c(-c3ccccc3)nn1-c1ccccc1Cl)CC2)C(=O)N1CCN(C)CC1`, the 50% inhibitory concentration (IC50) is < 800 nM.

As to `O=C(NC[C@@H]1CCNC1)Nc1nc2c(s1)-c1c(c(-c3cncnc3)nn1-c1ccccc1Cl)CC2`, the IC50 is < 800 nM.
